System: rat liver
Assay: 13C MR spectra in rat liver after intravenous injection of hyperpolarised solution
Conditions: 1 ml of 42 mM solution, 9.4T MRI
Excerpt: The data was acquired in preclinical horizontal-bore 9.4T MRI system using a 10-mm diameter 13C surface coil and a series of 20-degree radiofrequency pulses applied every 2 s.

downstream metabolites detected in 13C MR spectra: downstream metabolites could be detected
Structure (SMILES): CC(O)[13C](=O)O (stereo not shown) [[1-13C]lactate, [1-13C]lactic acid]
